What all share (format): cell-based
In experiment [1] the target is T1, JNK2 (Homo sapiens, UniProt P45984).
T1 construct: A549 lung adenocarcinoma cells were purchased from ATCC and cultured in RPMI1640 Medium; endogenous in cells; host or cells: A549
The experiment can be described thus: Cellular assay of JNK degradation (A549 cells, Western blot), JNK2. To be noted: for JNK2 degradation range: PROTAC concentration 1 μM, relative to DMSO control; for DC50: read-out: JNK2 DC50 range. The method, then: (§1) Protocol of the cellular assay of JNK degradation (A549 cells, Western blot). A549 lung adenocarcinoma cells were purchased from ATCC and cultured in RPMI1640 Medium (Gibco) supplemented with 10% Fetal Bovine Serum (Gibco). […] Cells were stimulated with PMA (Phorbol 12-myristate 13-acetate, Sigma) for 1 hour before harvesting. Cells were lysed in Cell Signaling lysis buffer supplemented with protease inhibitors (Thermo). The lysates were centrifuged at 20,000×g for 15 minutes to clarify, and protein concentration was determined by BCA (Pierce). Equal amounts of protein (5 micrograms) were separated by SDS-PAGE and transferred onto nitrocellulose membranes. The mermbranes were probed with antibodies against SAPK/JNK (Cell Signaling #9252), phospho-c-Jun (Cell Signaling #3270), MDM2 (Sigma M4308) and p53 (Cell Signaling #2527). HRP-conjugated anti-rabbit and anti-mouse secondary antibodies were from Cell Signaling. The bands were visualized with SuperSignal West Femto Substrate (Thermo). Quantitation was done using Image Lab Software v5.2.1.
For orientation: In western blotting, separated proteins are transferred to a membrane and probed.

The target of experiment [2] is T2, JNK1 (Homo sapiens, UniProt P45983).
T2 construct: A549 lung adenocarcinoma cells were purchased from ATCC and cultured in RPMI1640 Medium; endogenous in cells; host or cells: A549
Kind of experiment: Cellular assay of JNK degradation (A549 cells, Western blot), JNK1. To be noted: for JNK1 degradation range: PROTAC concentration 1 μM, relative to DMSO control; for DC50: read-out: JNK1 DC50 range. The method, then: as §1

In experiment [3] the target is T3, EZH2 (Homo sapiens, UniProt Q15910).
T3 construct: endogenous in cells; host or cells: MDA-MB-231
Kind of experiment: Cellular assay of EZH2 degradation (MDA-MB-231 cells, Western blot). To be noted: EZH2, MDA-MB-231 cells, PROTAC concentration 3 μM, relative to DMSO control. The method, then: Protocol of the Cellular Assay of EZH2 Degradation (MDA-MB-231 Cells, Western Blot).
MDA-MB-231 cells were plated at 10,000 cells per well in 6 well plates, 2 ml/well in DMEM+10% Fetal Bovine Serum. Cells were allowed to grow for 3 days at 37 degrees C. Cells were dosed with PROTACs. On day 3 and day 7 after dosing, cells were harvested and lysed with RIPA buffer. Lysed cells were transferred to eppendorf tubes, and each lysate was sonicated and then spinned in microfuge for 15 minutes at 20,000×g at 4 degrees C. Supernatant was transferred to a clean tube, and protein concentration was quantitated using the Pierce BCA Protein Assay kit (cat #23225). Lysate concentrations were adjusted to 1 microgram/microliter in lysis buffer. For Western blot samples were loaded in 4×LDS buffer, 10 microliters/lane, onto Noxex NuPage 4-12% Bis-Tris Midi Gel […]×26 well.
Gels were run on BioRad power source Model 1000/500, at 200V constant voltage for 1 hour. Gels were then transferred onto a nitrocellulose membrane using an iBlot2 transfer apparatus from Life Technologies. Transfers were done on Program 0 and blocked for 1 hour in TBS-T (Tris Buffered Saline with 0.05% Tween 20)+5% BSA (Bovine Serum Albumin). Block solution was decanted, and the primary antibody solutions were added (EZH2-Cell Signaling #5246S; tri-methyl-Histone H3-Cell Signaling #9733S; Histone H3-Cell Signaling #4499; all diluted 1:1000 in 20 ml TBS-T+5% BSA). The preparation was placed in cold room (4 degrees C.) overnight on rocker platform, after which the antibody solution was decanted. The preparation was washed 3 times in TBS-T for 10 minutes each, and anti-rabbit secondary antibody (Cell Signaling #7074S), diluted 1:20,000 in TBS-T+5% BSA, was added. This was followed by incubating for 1 hour at room temperature with gentle rocking and washing 3 times in TBS-T. To develop blots SuperSignal™ West Femto Maximum Sensitivity Substrate (Life Technologies Catalog number: 34095) solution was applied for 5 minutes. Blots were imaged on BioRad ChemiDoc Imager using the “Chemi Hi Sensitivity” protocol. Bands were quantitated using Image Lab software v 5.2.1.

T2 sequence (P45983 whole entry): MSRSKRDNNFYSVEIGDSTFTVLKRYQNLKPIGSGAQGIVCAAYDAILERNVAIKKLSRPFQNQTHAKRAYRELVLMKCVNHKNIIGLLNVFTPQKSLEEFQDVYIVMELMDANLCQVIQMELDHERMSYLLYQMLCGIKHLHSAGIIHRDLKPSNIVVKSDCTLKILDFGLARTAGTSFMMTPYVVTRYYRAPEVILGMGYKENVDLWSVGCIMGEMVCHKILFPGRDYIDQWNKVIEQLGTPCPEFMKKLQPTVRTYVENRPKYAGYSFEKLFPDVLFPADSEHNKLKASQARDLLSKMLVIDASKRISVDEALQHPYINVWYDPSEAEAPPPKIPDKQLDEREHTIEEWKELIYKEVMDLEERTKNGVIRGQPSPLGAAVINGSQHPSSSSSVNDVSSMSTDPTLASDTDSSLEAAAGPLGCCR
T3 sequence (Q15910 whole entry): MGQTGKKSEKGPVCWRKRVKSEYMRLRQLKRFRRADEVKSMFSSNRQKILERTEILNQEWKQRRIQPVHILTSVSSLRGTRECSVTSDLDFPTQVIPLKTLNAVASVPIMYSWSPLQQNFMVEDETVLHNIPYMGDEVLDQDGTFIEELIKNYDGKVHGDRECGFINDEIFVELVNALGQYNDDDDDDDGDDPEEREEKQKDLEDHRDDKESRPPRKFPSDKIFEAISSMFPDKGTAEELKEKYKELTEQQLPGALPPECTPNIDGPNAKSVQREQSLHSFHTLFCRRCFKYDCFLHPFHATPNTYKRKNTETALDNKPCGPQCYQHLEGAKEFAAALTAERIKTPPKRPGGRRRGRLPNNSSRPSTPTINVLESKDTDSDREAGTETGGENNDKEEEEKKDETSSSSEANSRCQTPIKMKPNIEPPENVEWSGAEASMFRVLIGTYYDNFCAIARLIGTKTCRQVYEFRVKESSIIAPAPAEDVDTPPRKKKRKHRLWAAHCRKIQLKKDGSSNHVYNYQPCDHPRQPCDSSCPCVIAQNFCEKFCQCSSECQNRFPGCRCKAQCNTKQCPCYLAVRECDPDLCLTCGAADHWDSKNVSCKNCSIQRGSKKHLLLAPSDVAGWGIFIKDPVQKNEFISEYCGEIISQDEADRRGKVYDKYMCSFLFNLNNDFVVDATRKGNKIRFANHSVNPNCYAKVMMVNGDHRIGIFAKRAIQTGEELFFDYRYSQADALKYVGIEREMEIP
T3 sequence (O75530 whole entry partner): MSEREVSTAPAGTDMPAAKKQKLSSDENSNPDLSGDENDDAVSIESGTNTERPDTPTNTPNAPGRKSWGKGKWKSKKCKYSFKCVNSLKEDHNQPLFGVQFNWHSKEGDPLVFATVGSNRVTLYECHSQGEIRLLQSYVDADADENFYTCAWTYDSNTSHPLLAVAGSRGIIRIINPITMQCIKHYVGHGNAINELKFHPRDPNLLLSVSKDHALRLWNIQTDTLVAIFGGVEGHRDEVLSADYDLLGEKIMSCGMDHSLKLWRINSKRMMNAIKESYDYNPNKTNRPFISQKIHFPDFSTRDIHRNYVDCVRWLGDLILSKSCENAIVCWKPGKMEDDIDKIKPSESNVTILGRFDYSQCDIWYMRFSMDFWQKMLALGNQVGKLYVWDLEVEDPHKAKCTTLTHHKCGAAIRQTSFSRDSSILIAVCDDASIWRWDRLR
T3 sequence (Q15022 whole entry partner): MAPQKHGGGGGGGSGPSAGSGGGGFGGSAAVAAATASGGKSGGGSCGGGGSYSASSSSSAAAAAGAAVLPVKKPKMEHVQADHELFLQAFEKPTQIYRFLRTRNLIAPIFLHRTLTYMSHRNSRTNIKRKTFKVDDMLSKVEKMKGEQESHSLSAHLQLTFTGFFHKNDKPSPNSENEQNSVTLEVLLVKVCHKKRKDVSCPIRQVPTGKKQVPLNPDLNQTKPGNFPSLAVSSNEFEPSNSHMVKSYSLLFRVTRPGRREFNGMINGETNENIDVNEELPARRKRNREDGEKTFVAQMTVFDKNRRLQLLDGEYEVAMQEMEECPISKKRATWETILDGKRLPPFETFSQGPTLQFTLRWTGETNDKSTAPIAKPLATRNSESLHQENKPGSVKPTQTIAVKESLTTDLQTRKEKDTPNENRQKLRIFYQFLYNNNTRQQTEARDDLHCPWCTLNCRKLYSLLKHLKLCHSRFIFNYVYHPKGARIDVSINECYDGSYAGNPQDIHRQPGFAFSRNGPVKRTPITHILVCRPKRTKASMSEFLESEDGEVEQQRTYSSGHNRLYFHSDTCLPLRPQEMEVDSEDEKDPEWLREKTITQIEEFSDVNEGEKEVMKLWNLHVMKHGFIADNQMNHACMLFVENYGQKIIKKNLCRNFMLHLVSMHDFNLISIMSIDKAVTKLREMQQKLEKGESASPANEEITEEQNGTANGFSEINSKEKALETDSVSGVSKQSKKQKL
T1 sequence (P45984 whole entry): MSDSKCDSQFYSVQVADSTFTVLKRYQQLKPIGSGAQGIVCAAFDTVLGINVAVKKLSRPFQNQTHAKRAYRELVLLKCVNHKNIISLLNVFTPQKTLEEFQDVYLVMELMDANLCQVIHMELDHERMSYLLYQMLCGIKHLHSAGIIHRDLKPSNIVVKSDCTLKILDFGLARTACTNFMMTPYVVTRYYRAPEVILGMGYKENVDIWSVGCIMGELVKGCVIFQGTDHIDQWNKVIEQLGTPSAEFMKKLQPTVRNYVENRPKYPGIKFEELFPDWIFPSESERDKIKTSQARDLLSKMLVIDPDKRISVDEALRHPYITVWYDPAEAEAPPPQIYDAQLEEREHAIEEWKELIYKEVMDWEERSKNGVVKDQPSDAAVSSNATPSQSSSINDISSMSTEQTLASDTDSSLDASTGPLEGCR

Consider `CN[C@@H](C)C(=O)N[C@H](C(=O)N1CCC[C@H]1c1nc(-c2ccc(OCCOCCOCCOCCOCCO[C@H]3CC[C@H](Nc4nccc(-c5cnn(Cc6ccccc6)c5N(C)C)n4)CC3)c3ccccc23)cs1)C1CCCCC1` [Example 12, (2S)—N-[(1S)-1-cyclohexyl-2-oxo-2-[(2S)-2-[4-[4-([1-[(1r,4r)-4-([4-[1-benzyl-5-(dimethylamino)-1H-pyrazol-4-yl]pyrimidin-2-yl]amino)cyclohexyl]-1,4,7,10,13-pentaoxapentadecan-15-yl]oxy)naphthalen-1-yl]-1,3-thiazol-2-yl]pyrrolidin-1-yl]ethyl]-2-(methylamino)propanamide], for which, in experiment [1], the JNK2 degradation range result is “B (degradation between 30% and 60%)”. Also, in experiment [2], the JNK1 degradation range result was “A (degradation more than 60%)” and the DC50 (in general, the midpoint of the concentration-degradation curve) lay within 1 to 100 nM.
For `CCN(c1cc(-c2ccc(OCCOCCOCCOc3ccc(CCN4CC[C@H]5CCN(C(=O)[C@@H](NC(=O)[C@H](C)NC)C6CCCCC6)[C@H]5C4)cc3)cc2)cc(C(=O)NCc2c(C)cc(C)[nH]c2=O)c1C)C1CCOCC1` (racemic) [Example 9, 5-[4-(2-[2-[2-(4-[2-[1-[(2S)-2-cyclohexyl-2-[(2S)-2-(methylamino)propanamido]acetyl]-octahydro-1H-pyrrolo[2,3-c]pyridin-6-yl]ethyl]phenoxy)ethoxy]ethoxy]ethoxy)phenyl]-N-[(4,6-dimethyl-2-oxo-1,2-dihydropyridin-3-yl)methyl]-3-[ethyl(oxan-4-yl)amino]-2-methylbenzamide], the “Target protein degradation range” value in experiment [3] was “C (degradation between 0% and 30%)”.
Still for that read-out and setting: the entry for `CCN(c1cc(-c2ccc(OCCOCCOCCOCCOCCOc3ccc(CCN4CC[C@H]5CCN(C(=O)[C@@H](NC(=O)[C@H](C)NC)C6CCCCC6)[C@H]5C4)cc3)cc2)cc(C(=O)NCc2c(C)cc(C)[nH]c2=O)c1C)C1CCOCC1` (racemic) [Example 8, 5-(4-[[1-(4-[2-[1-[(2S)-2-cyclohexyl-2-[(2S)-2-(methylamino)propanamido]acetyl]-octahydro-1H-pyrrolo[2,3-c]pyridin-6-yl]ethyl]phenyl)-1,4,7,10,13-pentaoxapentadecan-15-yl]oxy]phenyl)-N-[(4,6-dimethyl-2-oxo-1,2-dihydropyridin-3-yl)methyl]-3-[ethyl(oxan-4-yl)amino]-2-methylbenzamide] is “C (degradation between 0% and 30%)”.
As for `CN[C@@H](C)C(=O)N[C@H](C(=O)N1CCC[C@H]1c1nc(-c2ccc(OCCOCCOCCOCCOC3CCC(Nc4nccc(-c5cnn(Cc6ccccc6)c5N(C)C)n4)CC3)c3ccccc23)cs1)C1CCCCC1` (stereo partly drawn) [Example 15, (2S)—N-[(1S)-1-cyclohexyl-2-oxo-2-[(2S)-2-[4-[4-([1-[(1r,4r)-4-([4-[1-benzyl-5-(dimethylamino)-1H-pyrazol-4-yl]pyrimidin-2-yl]amino)cyclohexyl]-1,4,7,10-tetraoxadodecan-12-yl]oxy)naphthalen-1-yl]-1,3-thiazol-2-yl]pyrrolidin-1-yl]ethyl]-2-(methylamino)propanamide], the JNK2 degradation range entry in experiment [1] was “B (degradation between 30% and 60%)”. In experiment [2], the JNK1 degradation range entry was “A (degradation more than 60%)” and the DC50 is 100 to 1000 nM.
As to `CN[C@@H](C)C(=O)N[C@H](C(=O)N1CCC[C@H]1c1nc(-c2ccc(OCCOCCO[C@H]3CC[C@H](Nc4nccc(-c5cnn(Cc6ccccc6)c5N(C)C)n4)CC3)c3ccccc23)cs1)C1CCCCC1` [Example 13, (2S)—N-[(1S)-1-cyclohexyl-2-oxo-2-[(2S)-2-(4-[4-[2-(2-[[(1r,4r)-4-([4-[1-benzyl-5-(dimethylamino)-1H-pyrazol-4-yl]pyrimidin-2-yl]amino)cyclohexyl]oxy]ethoxy)ethoxy]naphthalen-1-yl]-1,3-thiazol-2-yl)pyrrolidin-1-yl]ethyl]-2-(methylamino)propanamide], in experiment [1], the JNK2 degradation range entry is “A (degradation more than 60%)” and the DC50 lay within 100 to 1000 nM. In experiment [2], the JNK1 degradation range entry is listed as “A (degradation more than 60%)” and the DC50 lay within 1 to 100 nM.
In the case of `CN[C@@H](C)C(=O)N[C@H](C(=O)N1CC[C@@H]2CCN(CCc3ccc(OCCOCCOCCOC4CCC(Nc5nccc(-c6cnn(Cc7ccccc7)c6N(C)C)n5)CC4)cc3)C[C@@H]21)C1CCCCC1` (mixture of isomers) [Example 18, (2S)—N-[(1S)-1-cyclohexyl-2-oxo-2-[6-[2-(4-[2-[2-(2-[[(1r,4r)-4-([4-[1-benzyl-5-(dimethylamino)-1H-pyrazol-4-yl]pyrimidin-2-yl]amino)cyclohexyl]oxy]ethoxy)-ethoxy]ethoxy]phenyl)ethyl]-octahydro-1H-pyrrolo[2,3-c]pyridin-1-yl]ethyl]-2-(methylamino)propanamide], in experiment [1], the JNK2 degradation range result is “A (degradation more than 60%)” and the DC50 fell in the range of 100 to 1000 nM. In experiment [2], the JNK1 degradation range result is “A (degradation more than 60%)” and the DC50 fell in the range of 1 to 100 nM.
As for `CCN(c1cc(-c2ccc(OCCOCCOCCOc3ccc(-c4csc([C@@H]5CCCN5C(=O)[C@@H](NC(=O)[C@H](C)NC)C5CCCCC5)n4)c4ccccc34)cc2)cc(C(=O)NCc2c(C)cc(C)[nH]c2=O)c1C)C1CCOCC1` [Example 10, 5-[4-[2-(2-[2-[(4-[2-[(2S)-1-[(2S)-2-cyclohexyl-2-[(2S)-2-(methylamino)propanamido]acetyl]pyrrolidin-2-yl]-1,3-thiazol-4-yl]naphthalen-1-yl)oxy]ethoxy]ethoxy)ethoxy]phenyl]-N-[(4,6-dimethyl-2-oxo-1,2-dihydropyridin-3-yl)methyl]-3-[ethyl(oxan-4-yl)amino]-2-methylbenzamide], the “Target protein degradation range” value in experiment [3] was “B (degradation between 30% and 60%)”.
Same read-out and setting: the entry for `CCN(c1cc(-c2ccc(OCCOCCOCCOCCOCCOc3ccc(-c4csc([C@@H]5CCCN5C(=O)[C@@H](NC(=O)[C@H](C)NC)C5CCCCC5)n4)c4ccccc34)cc2)cc(C(=O)NCc2c(C)cc(C)[nH]c2=O)c1C)C1CCOCC1` [Example 11, 5-(4-[[1-(4-[2-[(2S)-1-[(2S)-2-cyclohexyl-2-[(2S)-2-(methylamino)propanamido]acetyl]pyrrolidin-2-yl]-1,3-thiazol-4-yl]naphthalen-1-yl)-1,4,7,10,13-pentaoxapentadecan-15-yl]oxy]phenyl)-N-[(4,6-dimethyl-2-oxo-1,2-dihydropyridin-3-yl)methyl]-3-[ethyl(oxan-4-yl)amino]-2-methylbenzamide] is “B (degradation between 30% and 60%)”.
